Holding throughout (assay): biochemical
Holding throughout (parameters): Reaction Biology kinase panel, control compounds in 10-dose IC50 mode at Km ATP

For assay [1], the target named is T1, ARAF (Homo sapiens, UniProt P10398).
T1 sequence (P10398 1-606): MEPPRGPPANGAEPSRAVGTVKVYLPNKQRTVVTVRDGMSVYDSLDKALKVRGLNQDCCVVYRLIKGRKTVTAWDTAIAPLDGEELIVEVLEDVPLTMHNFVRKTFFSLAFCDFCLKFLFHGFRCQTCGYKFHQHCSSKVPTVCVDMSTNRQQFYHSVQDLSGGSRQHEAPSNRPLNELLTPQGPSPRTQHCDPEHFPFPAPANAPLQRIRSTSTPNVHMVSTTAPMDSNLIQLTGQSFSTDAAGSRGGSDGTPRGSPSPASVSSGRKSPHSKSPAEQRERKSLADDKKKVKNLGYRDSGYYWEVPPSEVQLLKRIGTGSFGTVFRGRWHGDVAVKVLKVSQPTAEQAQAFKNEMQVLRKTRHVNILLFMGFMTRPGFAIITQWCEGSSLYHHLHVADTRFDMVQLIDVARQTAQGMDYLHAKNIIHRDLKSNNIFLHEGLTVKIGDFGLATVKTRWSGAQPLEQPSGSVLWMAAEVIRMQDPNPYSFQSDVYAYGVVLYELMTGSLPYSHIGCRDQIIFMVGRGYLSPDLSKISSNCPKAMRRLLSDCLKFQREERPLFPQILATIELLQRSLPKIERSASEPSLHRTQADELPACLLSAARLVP

The target of assay [2] is T2, CK2a (Homo sapiens, UniProt P68400).
T2 construct: gene CSNK2A1

The target in assay [3] is T3, DYRK4 (Homo sapiens, UniProt Q9NR20).
T3 sequence (Q9NR20 1-520): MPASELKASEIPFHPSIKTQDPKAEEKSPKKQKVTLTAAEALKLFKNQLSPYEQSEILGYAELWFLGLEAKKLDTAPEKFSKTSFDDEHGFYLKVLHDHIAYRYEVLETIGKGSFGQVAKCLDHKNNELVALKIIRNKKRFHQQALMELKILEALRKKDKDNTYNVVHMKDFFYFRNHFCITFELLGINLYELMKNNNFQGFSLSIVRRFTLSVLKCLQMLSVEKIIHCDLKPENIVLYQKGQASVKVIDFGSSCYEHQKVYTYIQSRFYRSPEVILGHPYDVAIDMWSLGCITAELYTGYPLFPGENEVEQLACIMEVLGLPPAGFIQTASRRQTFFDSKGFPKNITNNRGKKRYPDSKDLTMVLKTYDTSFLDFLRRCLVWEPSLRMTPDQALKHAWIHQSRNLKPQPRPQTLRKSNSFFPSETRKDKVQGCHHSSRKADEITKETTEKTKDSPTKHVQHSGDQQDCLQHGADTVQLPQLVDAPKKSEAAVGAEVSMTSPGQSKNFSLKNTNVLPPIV

Assay [4] has as its target T4, ZAK/MLTK (Homo sapiens, UniProt Q9NYL2).
T4 construct: gene MAP3K20

The target in assay [5] is TGFBR2 (Homo sapiens, UniProt P37173).
Assay [6] concerns the target COT1/MAP3K8 (Homo sapiens, UniProt P41279).
Assay [7] concerns the target HIPK1 (Homo sapiens, UniProt Q86Z02).
For assay [8], the target named is HPK1/MAP4K1 (Homo sapiens, UniProt Q92918).
Assay [9] concerns the target LOK/STK10 (Homo sapiens, UniProt O94804).
In assay [10] the target is VRK2 (Homo sapiens, UniProt Q86Y07).
In assay [11] the target is TTBK2 (Homo sapiens, UniProt Q6IQ55).
Assay [12] has as its target TTBK1 (Homo sapiens, UniProt Q5TCY1). Particulars: control compound, Km ATP; read-out: IC50 (M) Control Cmpd.
Assay [13] has as its target T5, ERK1 (Homo sapiens, UniProt P27361).
T5 construct: gene MAPK3

The target of assay [14] is T6, PKMYT1 (Homo sapiens, UniProt Q99640).
T6 sequence (Q99640 1-499): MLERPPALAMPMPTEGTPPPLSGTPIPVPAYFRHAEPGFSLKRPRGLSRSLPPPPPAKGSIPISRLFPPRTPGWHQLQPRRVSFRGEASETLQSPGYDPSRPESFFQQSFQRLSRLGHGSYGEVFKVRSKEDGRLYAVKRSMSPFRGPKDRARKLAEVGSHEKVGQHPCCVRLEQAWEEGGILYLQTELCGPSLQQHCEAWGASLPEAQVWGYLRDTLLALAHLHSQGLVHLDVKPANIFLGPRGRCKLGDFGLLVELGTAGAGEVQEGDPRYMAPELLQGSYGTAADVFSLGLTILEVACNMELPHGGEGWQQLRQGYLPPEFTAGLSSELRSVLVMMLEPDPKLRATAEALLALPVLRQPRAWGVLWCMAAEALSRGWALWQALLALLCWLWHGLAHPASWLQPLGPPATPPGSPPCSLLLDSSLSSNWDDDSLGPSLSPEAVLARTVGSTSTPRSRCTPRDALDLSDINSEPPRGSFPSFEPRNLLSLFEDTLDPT

HPK1/MAP4K1, sequence (Q92918 whole entry): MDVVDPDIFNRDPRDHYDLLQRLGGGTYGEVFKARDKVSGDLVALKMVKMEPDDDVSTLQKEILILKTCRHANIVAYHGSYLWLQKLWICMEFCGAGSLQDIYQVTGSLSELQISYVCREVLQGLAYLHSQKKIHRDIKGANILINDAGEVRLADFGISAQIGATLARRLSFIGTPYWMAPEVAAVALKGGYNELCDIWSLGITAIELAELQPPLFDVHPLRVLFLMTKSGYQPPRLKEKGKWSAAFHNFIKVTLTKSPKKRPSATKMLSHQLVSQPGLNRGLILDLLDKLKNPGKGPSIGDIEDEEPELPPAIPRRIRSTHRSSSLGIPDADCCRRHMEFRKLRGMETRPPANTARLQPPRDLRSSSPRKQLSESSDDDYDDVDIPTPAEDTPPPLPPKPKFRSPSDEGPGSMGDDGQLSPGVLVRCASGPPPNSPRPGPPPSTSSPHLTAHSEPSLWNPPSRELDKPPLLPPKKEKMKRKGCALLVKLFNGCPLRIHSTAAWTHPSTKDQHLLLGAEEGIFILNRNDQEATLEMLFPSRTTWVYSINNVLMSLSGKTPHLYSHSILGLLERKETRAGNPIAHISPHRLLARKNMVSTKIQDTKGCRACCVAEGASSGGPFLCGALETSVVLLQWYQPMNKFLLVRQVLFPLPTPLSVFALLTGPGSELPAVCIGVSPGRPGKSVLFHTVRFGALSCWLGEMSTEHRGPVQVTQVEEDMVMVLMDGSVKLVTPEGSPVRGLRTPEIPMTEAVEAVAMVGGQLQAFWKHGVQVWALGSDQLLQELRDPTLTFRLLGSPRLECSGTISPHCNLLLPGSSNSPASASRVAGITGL
COT1/MAP3K8, sequence (P41279 whole entry): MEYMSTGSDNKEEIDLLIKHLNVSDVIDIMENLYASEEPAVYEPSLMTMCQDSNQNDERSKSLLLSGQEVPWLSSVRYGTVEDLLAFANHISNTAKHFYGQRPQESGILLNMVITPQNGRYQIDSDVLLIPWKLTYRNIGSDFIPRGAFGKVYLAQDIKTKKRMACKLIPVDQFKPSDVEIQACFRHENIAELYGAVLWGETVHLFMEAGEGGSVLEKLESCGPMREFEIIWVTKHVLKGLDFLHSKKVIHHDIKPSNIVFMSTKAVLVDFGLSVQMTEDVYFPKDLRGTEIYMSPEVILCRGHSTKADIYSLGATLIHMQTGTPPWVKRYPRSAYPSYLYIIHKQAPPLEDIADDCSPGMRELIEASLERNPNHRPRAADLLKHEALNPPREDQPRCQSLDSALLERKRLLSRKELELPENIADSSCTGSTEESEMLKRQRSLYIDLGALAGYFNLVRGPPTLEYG
T5 sequence (P27361 whole entry): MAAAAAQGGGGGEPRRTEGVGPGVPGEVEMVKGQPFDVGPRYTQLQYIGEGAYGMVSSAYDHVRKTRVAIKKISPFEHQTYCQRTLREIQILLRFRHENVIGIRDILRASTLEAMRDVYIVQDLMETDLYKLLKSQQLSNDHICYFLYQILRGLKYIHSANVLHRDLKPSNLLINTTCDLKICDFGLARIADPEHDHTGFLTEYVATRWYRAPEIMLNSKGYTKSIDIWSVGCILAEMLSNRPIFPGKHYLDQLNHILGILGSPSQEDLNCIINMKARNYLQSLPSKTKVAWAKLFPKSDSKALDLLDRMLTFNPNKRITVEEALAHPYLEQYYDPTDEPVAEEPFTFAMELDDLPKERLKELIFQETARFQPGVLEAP
LOK/STK10, sequence (O94804 whole entry): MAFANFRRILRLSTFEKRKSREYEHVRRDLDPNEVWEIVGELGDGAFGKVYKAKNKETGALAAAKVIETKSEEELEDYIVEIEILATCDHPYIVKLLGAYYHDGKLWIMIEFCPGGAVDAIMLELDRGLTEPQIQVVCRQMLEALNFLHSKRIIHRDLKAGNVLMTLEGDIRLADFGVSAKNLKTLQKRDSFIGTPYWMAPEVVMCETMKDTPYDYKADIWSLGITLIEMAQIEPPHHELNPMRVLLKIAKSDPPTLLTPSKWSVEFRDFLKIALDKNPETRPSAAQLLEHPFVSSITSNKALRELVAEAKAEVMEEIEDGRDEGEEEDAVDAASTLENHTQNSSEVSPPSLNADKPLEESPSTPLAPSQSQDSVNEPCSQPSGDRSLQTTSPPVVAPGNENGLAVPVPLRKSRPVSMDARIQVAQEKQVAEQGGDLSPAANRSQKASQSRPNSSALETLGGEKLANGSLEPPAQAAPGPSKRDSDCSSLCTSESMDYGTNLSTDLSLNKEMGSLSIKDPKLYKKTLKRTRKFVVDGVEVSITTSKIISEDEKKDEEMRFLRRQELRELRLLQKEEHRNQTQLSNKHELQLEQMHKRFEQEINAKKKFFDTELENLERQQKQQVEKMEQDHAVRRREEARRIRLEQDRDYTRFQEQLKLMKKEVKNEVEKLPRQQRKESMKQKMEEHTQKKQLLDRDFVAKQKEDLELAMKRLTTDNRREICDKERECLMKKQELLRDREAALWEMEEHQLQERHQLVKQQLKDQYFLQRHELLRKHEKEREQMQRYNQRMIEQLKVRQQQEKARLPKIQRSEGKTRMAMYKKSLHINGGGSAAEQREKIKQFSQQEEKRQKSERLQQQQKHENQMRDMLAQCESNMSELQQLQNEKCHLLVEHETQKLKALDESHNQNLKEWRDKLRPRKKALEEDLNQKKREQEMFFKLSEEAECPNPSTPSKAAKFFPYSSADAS
TTBK1, sequence (Q5TCY1 whole entry): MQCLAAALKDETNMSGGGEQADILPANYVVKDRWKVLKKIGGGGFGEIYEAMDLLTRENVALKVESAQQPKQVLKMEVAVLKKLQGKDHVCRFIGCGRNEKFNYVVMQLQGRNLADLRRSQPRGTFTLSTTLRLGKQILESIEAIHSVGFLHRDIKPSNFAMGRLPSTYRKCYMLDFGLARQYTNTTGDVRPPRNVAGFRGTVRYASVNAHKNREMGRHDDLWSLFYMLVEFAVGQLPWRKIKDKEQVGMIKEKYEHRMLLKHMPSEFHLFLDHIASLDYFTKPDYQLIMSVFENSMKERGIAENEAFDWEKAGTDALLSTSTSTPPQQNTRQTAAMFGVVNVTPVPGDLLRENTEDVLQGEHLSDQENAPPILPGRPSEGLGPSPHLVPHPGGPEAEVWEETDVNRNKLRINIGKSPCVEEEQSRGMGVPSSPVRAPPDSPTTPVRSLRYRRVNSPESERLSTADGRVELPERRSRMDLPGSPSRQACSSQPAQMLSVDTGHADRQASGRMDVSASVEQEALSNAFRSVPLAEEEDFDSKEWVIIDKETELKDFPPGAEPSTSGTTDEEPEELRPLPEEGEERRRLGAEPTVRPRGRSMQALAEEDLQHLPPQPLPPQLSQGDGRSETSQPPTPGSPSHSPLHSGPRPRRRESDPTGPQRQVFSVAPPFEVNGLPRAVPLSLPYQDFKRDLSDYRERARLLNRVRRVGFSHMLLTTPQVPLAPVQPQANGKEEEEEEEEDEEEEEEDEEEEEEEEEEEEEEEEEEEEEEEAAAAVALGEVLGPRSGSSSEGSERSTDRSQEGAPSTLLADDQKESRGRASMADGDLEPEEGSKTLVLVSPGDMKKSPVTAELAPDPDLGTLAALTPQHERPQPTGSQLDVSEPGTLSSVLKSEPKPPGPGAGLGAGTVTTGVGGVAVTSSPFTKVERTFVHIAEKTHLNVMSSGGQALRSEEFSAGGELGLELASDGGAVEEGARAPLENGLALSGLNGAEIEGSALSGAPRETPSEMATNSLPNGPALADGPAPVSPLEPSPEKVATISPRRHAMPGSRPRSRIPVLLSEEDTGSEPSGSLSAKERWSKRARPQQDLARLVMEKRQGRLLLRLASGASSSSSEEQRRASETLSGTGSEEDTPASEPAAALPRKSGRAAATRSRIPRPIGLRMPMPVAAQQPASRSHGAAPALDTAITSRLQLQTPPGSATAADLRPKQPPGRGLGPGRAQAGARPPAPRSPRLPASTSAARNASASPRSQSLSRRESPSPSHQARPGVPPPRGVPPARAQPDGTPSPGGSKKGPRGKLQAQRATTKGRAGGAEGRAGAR
VRK2, sequence (Q86Y07 whole entry): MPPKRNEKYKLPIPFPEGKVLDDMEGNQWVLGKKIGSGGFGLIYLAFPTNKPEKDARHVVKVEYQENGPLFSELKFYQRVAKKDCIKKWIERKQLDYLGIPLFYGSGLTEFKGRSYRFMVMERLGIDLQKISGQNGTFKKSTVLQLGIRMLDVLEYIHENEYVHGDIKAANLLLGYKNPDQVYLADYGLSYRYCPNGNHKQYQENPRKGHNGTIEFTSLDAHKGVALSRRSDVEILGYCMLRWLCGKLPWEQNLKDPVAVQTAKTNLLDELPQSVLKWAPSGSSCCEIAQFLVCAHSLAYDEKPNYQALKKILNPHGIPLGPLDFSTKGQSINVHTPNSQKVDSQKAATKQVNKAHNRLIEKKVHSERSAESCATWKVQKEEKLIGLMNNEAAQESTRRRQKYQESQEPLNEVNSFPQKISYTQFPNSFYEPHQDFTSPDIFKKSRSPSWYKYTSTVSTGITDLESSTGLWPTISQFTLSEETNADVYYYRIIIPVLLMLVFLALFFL
TGFBR2, sequence (P37173 whole entry): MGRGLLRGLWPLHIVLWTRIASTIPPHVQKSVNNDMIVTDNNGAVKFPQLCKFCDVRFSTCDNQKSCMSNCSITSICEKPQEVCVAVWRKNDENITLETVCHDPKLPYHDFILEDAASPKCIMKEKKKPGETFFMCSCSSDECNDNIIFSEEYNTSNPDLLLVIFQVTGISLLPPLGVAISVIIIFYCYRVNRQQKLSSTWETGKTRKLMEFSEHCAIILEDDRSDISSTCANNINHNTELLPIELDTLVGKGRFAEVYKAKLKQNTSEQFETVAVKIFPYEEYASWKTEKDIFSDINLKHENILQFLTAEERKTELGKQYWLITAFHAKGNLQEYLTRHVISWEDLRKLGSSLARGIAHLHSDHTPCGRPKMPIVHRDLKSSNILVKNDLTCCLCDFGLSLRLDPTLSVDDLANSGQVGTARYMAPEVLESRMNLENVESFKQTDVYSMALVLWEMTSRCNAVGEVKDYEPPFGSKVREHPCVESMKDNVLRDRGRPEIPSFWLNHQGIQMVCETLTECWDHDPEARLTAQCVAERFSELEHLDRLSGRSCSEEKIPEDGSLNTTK

Consider `O=C1Nc2ccc(I)cc2/C1=C/c1cc(Br)c(O)c(Br)c1` [GW5074], for which the IC50 in assay [1] was 0.0151 µM; in [2], 0.231 µM; in [3], 1.61 µM; in [4], 3.11 µM.
Regarding `c1ccc2c(-c3cnn4cc(-c5ccc(N6CCNCC6)cc5)cnc34)ccnc2c1` [LDN193189], it took 0.0548 µM to reach half-maximal inhibition in assay [5] (IC50).
As to `Cn1cc(C2=C(c3cn(CCCSC(=N)N)c4ccccc34)C(=O)NC2=O)c2ccccc21` [RO-31-8220], the IC50 in assay [6] worked out at 10.2 µM; in assay [7], 3.06 µM; in assay [8], 0.051 µM; in [9], 0.141 µM; in [10] it was 5.73 µM.
As to `Oc1ccc(-c2nc(-c3ccncc3)c(-c3ccc(F)cc3)[nH]2)cc1` [SB202190], the 50% inhibitory concentration (IC50) in [11] was 5.47 µM; in assay [12], 1.31e-05 M.
`O=C(Nc1ccc2[nH]nc(-c3ccncc3)c2c1)[C@@H]1CCN(CC(=O)N2CCN(c3ccc(-c4ncccn4)cc3)CC2)C1` [SCH772984] yielded an IC50 in [13] of 0.00934 µM.
The compound `CN[C@@H]1C[C@H]2O[C@@](C)([C@@H]1OC)n1c3ccccc3c3c4c(c5c6ccccc6n2c5c31)C(=O)NC4` [STAUROSPORINE] came in with an IC50 in [14] of 0.0104 µM.

The term IC50 denotes the concentration needed to halve the response being measured.

These data come from PMC8429728, “TNK1 is a ubiquitin-binding and 14-3-3-regulated kinase that can be targeted to block tumor growth” (Nature Communications, 2021).
